Test results: patent US12643882B2, “Inhibitors of human respiratory syncytial virus and metapneumovirus” (priority 2022, dated 2026)
Where two headings read alike, the source gives them in different places.

Columns and labels:
[1] = system: RSV-A2-GFP virus; assay: microbe, parasite or virus in culture; format: cell-based, Human Respiratory Syncytial Virus
In short: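 Assay-ready frozen Calu-1 cells at 20,000 cells/mL were infected with recombinant RSV-A2-GFP (MOI 1.2) in DMEM with 2% FBS. Cells were exposed to 10-point 3-fold compound dilutions for 96 h at 37° C. GFP-positive cells were counted by imaging, with same-well CellTiter-Glo for cytotoxicity, and IC50 and CC50 came from 4-parameter logistic fits.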

[2] = system: hMPV-GFP virus; assay: microbe, parasite or virus in culture; format: cell-based, human metapneumovirus
In short: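 VERO cells infected with GFP-expressing hMPV at MOI 1.25 were incubated 48 h at 37 °C with compound in 10-point 3-fold dilutions (typically 40,300–2 nM final). GFP-positive cells were counted by imaging. Same-well CellTiter-Glo gave cytotoxicity, and IC50/CC50 came from 4-parameter logistic fits.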

[3] = human respiratory syncytial virus, Calu-1, 96 h, read-out: RSV EC50, Calu-1 cells infected with RSV-A2-GFP, 96 hrs, GFP-expressing cells counted
[4] = human metapneumovirus, Vero, 48 h, read-out: hMPV EC50, VERO cells infected with hMPV-GFP, 48 hrs, GFP-expressing cells counted
[5] = Calu-1 cells infected with RSV-A2-GFP, 96 hrs, GFP-expressing cells counted, read-out: RSV EC50
[6] = VERO cells infected with hMPV-GFP, 48 hrs, GFP-expressing cells counted, read-out: hMPV EC50

Cn1nc(-c2ncccn2)cc1C(=O)N1C[C@@H]2[C@H](C1)[C@H]2Oc1cc(C(C)(C)N)cc(-c2ccc(F)c(F)c2)n1 [Example 55, ((1R,5S,6s)-6-((4-(2-aminopropan-2-yl)-6-(3,4-difluorophenyl)pyridin-2-yl)oxy)-3-azabicyclo[3.1.0]hexan-3-yl)(1-methyl-3-(pyrimidin-2-yl)-1H-pyrazol-5-yl)methanone]
EC50 [1, 3]: < 0.01 µM | EC50 [2, 4]: > 0.1 µM

CC(C)(N)c1cc(O[C@H]2[C@@H]3CN(C(=O)c4cnc(-c5ncccn5)s4)C[C@@H]32)nc(-c2ccc(F)cc2)c1 [Example 9, ((1R,5S,6s)-6-((4-(2-aminopropan-2-yl)-6-(4-fluorophenyl)pyridin-2-yl)oxy)-3-azabicyclo[3.1.0]hexan-3-yl)(2-(pyrimidin-2-yl)thiazol-5-yl)methanone]
EC50 [1, 3]: < 0.01 µM | EC50 [2, 4]: > 0.1 µM

Cc1nc(-c2ncccn2)sc1C(=O)N1C[C@@H]2[C@H](C1)[C@H]2Oc1cc(C(C)(N)CO)cc(-c2ccc(F)cc2)n1 (single isomer, unassigned; enantiomer 1) [Example 113A]
EC50 [1, 3]: < 0.01 µM | EC50 [2, 4]: > 0.1 µM

Cc1nc(-c2ncccn2)sc1C(=O)N1C[C@@H]2[C@H](C1)[C@H]2Oc1cc(C(C)(C)N)cc(-c2ccc(C#N)cc2)n1 [Example 23, 4-(4-(2-aminopropan-2-yl)-6-(((1R,5S,6s)-3-(4-methyl-2-(pyrimidin-2-yl)thiazole-5-carbonyl)-3-azabicyclo[3.1.0]hexan-6-yl)oxy)pyridin-2-yl)benzonitrile]
EC50 [1, 5]: < 0.01 µM | EC50 [2, 6]: > 0.1 µM

Cc1nc(-c2ncccn2)sc1C(=O)N1C[C@@H]2[C@H](C1)[C@H]2Oc1cc(C(C)(C)N)cc(-c2ccc(Cl)cc2)n1 [Example 19, ((1R,5S,6s)-6-((4-(2-aminopropan-2-yl)-6-(4-chlorophenyl)pyridin-2-yl)oxy)-3-azabicyclo[3.1.0]hexan-3-yl)(4-methyl-2-(pyrimidin-2-yl)thiazol-5-yl)methanone]
EC50 [1, 5]: < 0.01 µM | EC50 [2, 6]: < 0.01 µM

COc1nn(-c2ncccn2)cc1C(=O)N1C[C@@H]2[C@H](C1)[C@H]2Oc1cc(C(C)(C)N)c(Cl)c(-c2ccc(F)cc2)n1 [Example 121, ((1R,5S,6s)-6-((4-(2-aminopropan-2-yl)-5-chloro-6-(4-fluorophenyl)pyridin-2-yl)oxy)-3-azabicyclo[3.1.0]hexan-3-yl)(3-methoxy-1-(pyrimidin-2-yl)-1H-pyrazol-4-yl)methanone]
EC50 [1, 5]: < 0.01 µM | EC50 [2, 6]: > 0.1 µM

CCc1nc(-c2ncccn2)sc1C(=O)N1C[C@@H]2[C@H]1C[C@H]2Oc1cc(C(C)(C)N)cc(-c2ccc(F)cc2)n1 (single isomer, unassigned; enantiomer 2) [Example 3]
EC50 [1, 3]: < 0.01 µM | EC50 [2, 4]: > 0.1 µM
